# Results as given in publication PMC4585835 (Scientific Reports, 2015).
# Like-named read-outs stand apart in the source and are kept apart here. Where a SMILES comes first, the peptide text is derived from it. Where no end group is shown, it is not given here. [ ]: non-standard residue; d: D form. The star is where a group is joined. Stearoyl = CCCCCCCCCCCCCCCCCC(=O)*
# What was measured:
# [1] = Bleeding time test (BT) in rats; type: in vivo, rat; details: 30 min after administration
# Procedure: Bleeding time was determined as reported previously. Male SD rats (180–220 g) were divided into 6 groups (n = 8). […] Thirty minutes after the injection, bleeding was induced by tail transection of the anesthetized rat with a size 21 disposable scalpel blade 2 mm from the tail tip. The bleeding tail was wiped with filter paper every 30 s, and the bleeding time was recorded when no blood was observed on the filter paper.
# human thrombin [2] = target: T1, human thrombin (Homo sapiens, UniProt P00734); test: Degradation mediated by human thrombin (HPLC); type: in vitro ADME; details: human thrombin (69 NIH/mL) in Tris-HCl buffer, pH 8, 69 NIH/ml human thrombin, peptide 0.41 mM, 37 °C, read-out: peptide remained after reaction with human thrombin
# T1 construct: purchased National Institute for the Control of Pharmaceutical and Biological Products (Beijing, China)
# Procedure: The catalytic cleavage of peptides mediated by thrombin was also examined using the same method. Specifically, a peptide solution (0.41 mM) was first incubated with thrombin (69 NIH/mL) in Tris-HCl buffer (70 mM Tris HCl, NaCl 50 mM, pH = 8.0) at 37 °C.
# rat thrombin = target: T2, rat thrombin (Rattus norvegicus, UniProt P18292); test: Inhibition of rat thrombin-catalyzed hydrolysis of Chromozym TH; type: biochemical; details: 25 °C, pH 7.4
# T2 construct: purchased Sigma
# [3] = Pharmacokinetics in rats, i.v.; type: in vivo; details: rat, 1 μmol/kg i.v., n = 5; for AUC(0-t): read-out: AUC(0-t) (converted); for MRT last: read-out: MRT0-t (converted); for Vd: read-out: Vss
# Procedure: SD Rats were randomly divided into three groups (n = 5). […] All blood samples were immediately centrifuged at 5000 rpm for 5 min at room temperature, and the plasma obtained was stored at −20 °C before analysis. To the rat plasma (100 μL) was added 10 μL internal standard (80 ~ 100 ng/ml Carbamazepine), followed by mixing with 200 μL methanol with vortexing for 1 min. At this stage, certain amounts of proteins may precipitate out, thus this mixture was centrifuged at 12,000 rpm for 5 min at room temperature to achieve complete separation. The 20 μl supernatant was injected into a HPLC (Symbiosis, Spark, Holland; column: 50 mm × 2.1 mm, 5 μm, Agilent Eclipse Plus) –MS/MS system (ABI 4000 Q-Trap triple quadrupole mass spectrometer) equipped with electrospray ionization (ESI) source in the positive ion mode (Foster City, USA). The HPLC elution gradient was as follows: 0–0.5 min, 5–5% (B); 0.5–3 min, 5–95% (B); 3–4 min, 95–95% (B); 4–4.06 min, 95–5% (B); 4.06–6 min, 5–5% (B); the flow-rate was 0.4 ml/min; A was 0.1% formic acid/Waterl, B was 0.1% formic acid/methanol. The MS parameters were: CUR10Psi; Ion Spray Voltage (IS) 5500v; Collision activated dissociation (CAD) High, Gas1 = 50 psi, Gas2 = 50 psi, TEM = 500 °C.
# All three peptides remained stable in plasma during three freeze/thaw cycles, at room temperature for at least 2 h. The supernatant of plasma samples were also found to be stable for at least 24 h at 10 °C in the autosampler.
# The statistical significance of the difference among pharmacokinetic parameters was determined using the mean comparison Student’s t-test, and the resulting P values were lower than 0.05, which is considered to be statistically significant.
# trypsin = target: T3, trypsin (Bos taurus, UniProt P00760); test: Degradation mediated by trypsin (HPLC); type: in vitro ADME; details: trypsin (119 ng/μL) in Tris-HCl buffer, pH 8.5, 119 μg/ml trypsin, peptide 0.79 mM, 37 °C, read-out: peptide intact after incubation with trypsin
# T3 construct: purchased Roche Corp (Indianapolis, USA)
# T3 sequence (P00760 24-246): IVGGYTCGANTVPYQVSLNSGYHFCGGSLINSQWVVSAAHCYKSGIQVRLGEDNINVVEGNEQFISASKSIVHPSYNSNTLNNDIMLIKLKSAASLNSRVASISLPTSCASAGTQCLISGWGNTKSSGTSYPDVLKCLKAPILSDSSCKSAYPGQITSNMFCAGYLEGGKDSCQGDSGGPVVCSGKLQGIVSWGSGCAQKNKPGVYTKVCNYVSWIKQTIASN
# Excerpt: The degradation of peptides mediated by trypsin can be effectively monitored by HPLC analysis. […] The detector wavelength was set at 214 nm.
# human thrombin [4] = target: T1, human thrombin; test: Inhibition of human thrombin-catalyzed hydrolysis of Chromozym TH; type: biochemical; details: 25 °C, pH 7.4
# Procedure: The inhibition constant (Ki) was determined as reported previously. A 0.05 mL of peptide solution (concentration 10, 25, 50, 100, 150, 500 and 1000 nM, respectively) was added to 0.4 mL mixture of Hepes buffer (10 mM Hepes, 10 mM Tris, 0.1 M NaCl, 0.1% PEG 6000, pH 7.4) and bovine or human thrombin (0.25 NIH). The resulting solution was incubated at 25 °C for 2 min, followed by the addition of 0.05 mL Chromozym TH (concentration 25, 33, 40, 50, 100, 125, 200, 330, 500, and […], respectively). The absorbance at 405 nm was measured using a Beckman DU640 spectrometer. The inhibition constant (Ki) was determined using the following equation (Eq.1) originally developed for competitive inhibition processes[25]:
# Herein, S is the initial substrate concentration; I is the inhibitor concentration; v is the initial steady-state velocity; Vmax is the limiting maximal velocity; and Km is the dissociation constant of the complex.
# [5] = system: Trypsin (modified sequencing grade); test: trypsin (119 ng/μL) in the Tris-HCl buffer (90 mM, pH = 8.5); details: 37 °C, up to 5 h
# human thrombin [6] = test: thrombin (69 NIH/mL) in Tris-HCl buffer (70 mM Tris HCl, NaCl 50 mM, pH = 8.0); details: 37 °C, up to 5 h
compound,measurement,setting,value
"CC[C@H](C)[C@H](NC(=O)[C@H](CCC(=O)O)NC(=O)[C@H](CCC(=O)O)NC(=O)[C@H](Cc1ccccc1)NC(=O)[C@H](CC(=O)O)NC(=O)CNC(=O)[C@H](CC(N)=O)NC(=O)CNC(=O)CNC(=O)CNC(=O)CNC(=O)[C@@H]1CCCN1C(=O)[C@H](CCCNC(=N)N)NC(=O)[C@@H]1CCCN1C(=O)[C@H](N)Cc1ccccc1)C(=O)N1CCC[C@H]1C(=O)N[C@@H](CCC(=O)O)C(=O)N[C@@H](CCC(=O)O)C(=O)N[C@@H](Cc1ccc(O)cc1)C(=O)N[C@@H](CC(C)C)C(=O)O [Hirulog-1, reference compound]",bleeding time (BT),[1]; 8 mg/kg,525.00 ± 48.11 s
same,"remaining at 3 h, 0.41 mM",human thrombin [2],57%
same,"remaining at 5 h, 0.41 mM",human thrombin [2],23%
same,Ki,rat thrombin,20.5 ± 0.62 nM
same,AUC(0-inf),"[3]; SD, plasma, iv, 1 umol/kg",0.415 µM·h
same,Cmax,"[3]; SD, plasma, iv, 1 umol/kg",3100 ± 1100 nM
same,clearance,"[3]; SD, plasma, iv, 1 umol/kg",42.6 ± 5.2 mL/min/kg
same,AUC(0-t),"[3]; SD, plasma, iv, 1 umol/kg",0.395 µM·h
same,MRT last,"[3]; SD, plasma, iv, 1 umol/kg",12.1 min
same,Vd,"[3]; SD, plasma, iv, 1 umol/kg",0.522 ± 0.151 L/kg
same,"remaining at 3 h, 0.79 mM",trypsin,10%
same,"remaining at 5 h, 0.79 mM",trypsin,6%
CC[C@H](C)[C@H](NC(=O)[C@@H]1CCCN1C(=O)[C@H](CCC(=O)O)NC(=O)[C@H](Cc1ccccc1)NC(=O)[C@H](CC(=O)O)NC(=O)CNC(=O)[C@H](CCC(N)=O)NC(=O)CNC(=O)CNC(=O)CNC(=O)CNC(=O)[C@@H]1CCCN1C(=O)[C@H](CCCNC(=N)N)NC(=O)[C@@H]1CCCN1C(=O)[C@H](N)Cc1ccccc1)C(=O)N1CCC[C@H]1C(=O)N[C@@H](CCC(=O)O)C(=O)N[C@@H](CC(=O)O)C(=O)N[C@@H](C)C(=O)N[C@@H](Cc1ccc(O)cc1)C(=O)N[C@@H](CC(=O)O)C(=O)N[C@@H](CCC(=O)O)C(N)=O [Peptide 1] (H-[dF]PRPGGGGQGDFEPIPEDAYDE-NH2),"remaining at 3 h, 0.41 mM",human thrombin [2],70%
same,"remaining at 5 h, 0.41 mM",human thrombin [2],46%
same,Ki,rat thrombin,13.4 ± 0.46 nM
same,AUC(0-inf),"[3]; SD, plasma, iv, 1 umol/kg",0.432 µM·h
same,AUC(0-t),"[3]; SD, plasma, iv, 1 umol/kg",0.428 µM·h
same,Cmax,"[3]; in vivo, iv, 1 umol/kg",2300 ± 400 nM
same,clearance,"[3]; in vivo, iv, 1 umol/kg",36.4 ± 3.6 mL/min/kg
same,MRT last,"[3]; in vivo, iv, 1 umol/kg",13.9 min
same,Vd,"[3]; in vivo, iv, 1 umol/kg",0.504 ± 0.0217 L/kg
same,T1/2,[3],13.5 ± 2.6 min
same,half-life,"[3]; in vivo, iv, 1 umol/kg",< 16 min
same,"remaining at 3 h, 0.79 mM",trypsin,5%
same,"remaining at 5 h, 0.79 mM",trypsin,1%
CCCCCCCCCCCCCCCCCC(=O)NCCCC[C@H](NC(=O)[C@@H]1CCCN1C(=O)[C@H](CCCNC(=N)N)NC(=O)[C@@H]1CCCN1C(=O)[C@H](N)Cc1ccccc1)C(=O)NCC(=O)NCC(=O)NCC(=O)N[C@@H](CCC(N)=O)C(=O)NCC(=O)N[C@@H](CC(=O)O)C(=O)N[C@@H](Cc1ccccc1)C(=O)N[C@@H](CCC(=O)O)C(=O)N1CCC[C@H]1C(=O)N[C@H](C(=O)N1CCC[C@H]1C(=O)N[C@@H](CCC(=O)O)C(=O)N[C@@H](CC(=O)O)C(=O)N[C@@H](C)C(=O)N[C@@H](Cc1ccc(O)cc1)C(=O)N[C@@H](CC(=O)O)C(=O)N[C@@H](CCC(=O)O)C(N)=O)[C@@H](C)CC [Peptide S1] (H-[dF]PRPK(Stearoyl)GGGQGDFEPIPEDAYDE-NH2; N-terminus assumed),Ki,human thrombin [4],19.5 ± 0.4 nM
same,Ki,rat thrombin,37.4 ± 1.16 nM
CCCCCCCCCCCCCCCCCC(=O)NCCCC[C@H](NC(=O)CNC(=O)CNC(=O)CNC(=O)[C@@H]1CCCN1C(=O)[C@H](CCCNC(=N)N)NC(=O)[C@@H]1CCCN1C(=O)[C@H](N)Cc1ccccc1)C(=O)N[C@@H](CCC(N)=O)C(=O)NCC(=O)N[C@@H](CC(=O)O)C(=O)N[C@@H](Cc1ccccc1)C(=O)N[C@@H](CCC(=O)O)C(=O)N1CCC[C@H]1C(=O)N[C@H](C(=O)N1CCC[C@H]1C(=O)N[C@@H](CCC(=O)O)C(=O)N[C@@H](CC(=O)O)C(=O)N[C@@H](C)C(=O)N[C@@H](Cc1ccc(O)cc1)C(=O)N[C@@H](CC(=O)O)C(=O)N[C@@H](CCC(=O)O)C(N)=O)[C@@H](C)CC [Peptide S3] (H-[dF]PRPGGGK(Stearoyl)QGDFEPIPEDAYDE-NH2; N-terminus assumed),Ki,human thrombin [4],11 ± 0.15 nM
same,Ki,rat thrombin,54.5 ± 0.82 nM
D-FPRP-GGGG-QGDFEEIPEEYL,cleaved bond,[5],Arg-Pro
same,cleaved bond,human thrombin [6],Arg-Pro
D-FPRP-GGGG-QGDFEPIPEDAYDE^*,cleaved bond,[5],Arg-Pro
same,cleaved bond,human thrombin [6],Arg-Pro
D-FPRP-GK(stearic acid)GG-QGDFEPIPEDAYDE^* ([dF]PRPGK(Stearoyl)GGQGDFEPIPEDAYDE-NH2),cleaved bond,[5],Arg-Pro
same,cleaved bond,human thrombin [6],Arg-Pro
heparin [reference compound],bleeding time (BT),[1]; 200 IU/kg,401 ± 83.23 s
